Laboratory results published in US20260335397A1, “TREATMENT OF GEOGRAPHIC ATROPHY” (Apellis Pharmaceuticals, Inc., priority 2022, published 2026).

Legend:
[1] = test system: geographic atrophy (GA) secondary to age-related macular degeneration (AMD); assay: Post-hoc SD-OCT analysis of PR and RPE loss, OAKS and DERBY studies; assay type: in vivo, human; settings: 12 months; for RPE loss, difference EM vs EOM / PR loss, difference EM vs EOM: monthly vs every other month; for PR loss, difference EM vs. Sham Pooled / RPE loss, difference EM vs. Sham Pooled: monthly
Source text: (§1) LS means estimated from MMRM analysis. The mITT population was used for the analysis, defined as all randomized patients who received at least 1 injection of pegcetacoplan or sham and had baseline and at least one post-baseline value of GA lesion area in the study eye. FOV=field of view; LS=least square; M=month; mITT=modified intent-to-treat; MMRM=mixed-effects model for repeated measures; PEOM=pegcetacoplan every other month; PM=pegcetacoplan monthly; PR=photoreceptor; RPE=retinal pigment epithelium; SE=standard error.
as §1, with “FOV-field” for “FOV=field”
Spectral-domain optical coherence tomography (OCT) allows for cross sectional visualization of the neurosensory retina, including the photoreceptor (PR) layer, as well as the retinal pigment epithelium (RPE) and other retinal structures. […] A post-hoc analysis that assessed the ability of pegcetacoplan treatment to reduce PR and RPE loss in patients with GA was performed using SD-OCT images acquired from a subgroup of patients in the OAKS and DERBY studies, namely those for whom Spectralis SD-OCT images were available. Automated, deep learning based segmentation of RPE loss and PR thickness on SD-OCT volumes acquired at baseline and months 2, 4, 6, 8, 10, and 12 was performed according to previously published methods. The difference in the change from baseline of RPE loss area and of PR loss area (determined based on PR thickness measurements) was compared among the monthly, every other month, and pooled sham treatment arms using LS Mean MMRM modeling. […] The magnitude of the treatment effects at 12 months, as determined using LS mean MMRM modeling, are summarized below.

[2] = test system: geographic atrophy (GA) secondary to age-related macular degeneration (AMD); assay: Post-hoc analysis of BCVA and VFQ-25 by lesion distance from foveal center, OAKS and DERBY; assay type: in vivo, human; settings: lesions ≥250 μm from foveal center, 24 months
Protocol: This Example describes a post-hoc analysis of results from the OAKS and DERBY studies described in Example 1. Functional data by lesion distance from foveal center were assessed over 24 months.
In the patient subgroup having lesions ≥250 μm away from the foveal center, pegcetacoplan slowed vision loss and improved quality of life in patients. […] This subgroup included patients in the mITT sample with non-missing baseline measurements of RPE central 3 mm occupancy (C30) in regions 1-5 and lesion distance from fovea center. Mean changes were calculated among patients with BCVA measurements at each timepoint and thus samples varied across outcomes shown with no imputation for missing data. Adjusted differences from bootstrapped inverse probability weighted regressions controlling for baseline C30 in regions 1-5, study and fellow eye GA characteristics, study eye visual acuity, and patient characteristics.
This subgroup included patients in the mITT sample with non-missing baseline measurements of RPE central 3 mm occupancy (C3O) in regions 1-5 and lesion distance from fovea center. Mean changes were calculated among patients with BCVA measurements at each timepoint and thus samples varied across outcomes shown with no imputation for missing data. […]

## Poly(oxy-1,2-ethanediyl), α-hydro-ω-hydroxy-, 15,15′-diester with N-acetyl-L-isoleucyl-L-cysteinyl-L-valyl-1-methyl-L-tryptophyl-L-glutaminyl-L-α-aspartyl-L-tryptophylglycyl-L-alanyl-L-histidyl-L-arginyl-L-cysteinyl-L-threonyl-2-[2-(2-aminoethoxy)ethoxy]acetyl-N^6-carboxy-L-lysinamide cyclic (2->12)-(disulfide) [pegcetacoplan]
[1]; DERBY and OAKS, monthly and every other month
  PR loss and RPE loss compared with sham: statistically significant reduction in PR loss and RPE loss at 12 months
[1]; DERBY, every other month, p<0.0001
  PR loss, difference every other month vs. Sham pooled: −61.0%
[1]; DERBY, every other month, p<0.0065
  RPE loss, difference every other month vs. Sham pooled: −20.4%
[1]; DERBY, p=0.0103
  RPE loss, difference EM vs EOM: −19.6%
[1]; DERBY, p=0.0785
  PR loss, difference EM vs EOM: −42%
[1]; DERBY, p<0.0001
  PR loss, difference EM vs. Sham Pooled: −77.4%
  RPE loss, difference EM vs. Sham Pooled: −36.0%
[1]; OAKS, every other month, p<0.0001
  PR Loss, difference EOM vs. Sham pooled: −47.7%
[1]; OAKS, every other month, p=0.0342
  RPE loss, difference every other month vs. Sham pooled: −14.8%
[1]; OAKS, p=0.0049
  PR loss, difference EM vs EOM: −51.3%
[1]; OAKS, p=0.5282
  RPE loss, difference EM vs EOM: −5.7%
[1]; OAKS, p<0.0001
  PR loss, difference EM vs. Sham Pooled: −74.5%
[1]; OAKS, p=0.0070
  RPE loss, difference EM vs. Sham Pooled: −19.7%
[2]
  quality of life assessed by VFQ-25, better relative to sham: over 4 points
[2]; monthly and every other month combined, baseline BCVA 73 (sham 75)
  BCVA change from baseline, relative to sham: less of a BCVA change from baseline at 24 months
